Where a SMILES comes first, the peptide text is derived from it. [ ]: non-standard residue; d: D form. Nle = CCCC[C@H](N)C(=O)O
System: frog
Assay: In vitro potency relative to alpha-melanotropin (alpha-MSH), in the frog (Rana pipiens) skin bioassay
Assay type: functional

## CCCC[C@H](NC(C)=O)C(=O)N[C@@H](CCC(=O)O)C(=O)N[C@@H](Cc1c[nH]cn1)C(=O)N[C@@H](Cc1ccccc1)C(=O)N[C@@H](CCCN=C(N)N)C(=O)N[C@@H](Cc1c[nH]c2ccccc12)C(=O)NCC(N)=O
  Relative potency: 0.002

## Ac-MEHFRWGKP-NH2
  Relative potency: 0.18

## CC(=O)N[C@@H](Cc1c[nH]cn1)C(=O)N[C@@H](Cc1ccccc1)C(N)=O (Ac-His-Phe-NH2)
  Relative potency: 0

## CC(=O)N[C@@H](Cc1ccccc1)C(=O)N[C@@H](CCCN=C(N)N)C(N)=O (Ac-Phe-Arg-NH2)
  Relative potency: 0

## CSCC[C@H](NC(C)=O)C(=O)N[C@@H](CCC(=O)O)C(=O)N[C@@H](Cc1c[nH]cn1)C(=O)N[C@@H](Cc1ccccc1)C(=O)N[C@@H](CCCN=C(N)N)C(=O)N[C@@H](Cc1c[nH]c2ccccc12)C(=O)NCC(N)=O
  Relative potency: 0.0005

## CCCC[C@H](NC(C)=O)C(=O)N[C@@H](CCC(=O)O)C(=O)N[C@@H](Cc1c[nH]cn1)C(=O)N[C@@H](Cc1ccccc1)C(=O)N[C@@H](CCCN=C(N)N)C(=O)N[C@@H](Cc1c[nH]c2ccccc12)C(=O)NCC(=O)N[C@@H](CCCCN)C(N)=O (Ac-[Nle]EHFRWGK-NH2)
  Relative potency: 0.002

## CC(=O)N[C@@H](CCCCN)C(N)=O
  Relative potency: 0

## CCCC[C@H](NC(C)=O)C(=O)N[C@@H](CCC(=O)O)C(=O)N[C@@H](Cc1c[nH]cn1)C(=O)N[C@@H](Cc1ccccc1)C(=O)N[C@@H](CCCN=C(N)N)C(=O)N[C@@H](Cc1c[nH]c2ccccc12)C(=O)NCC(=O)N[C@@H](CCCCN)C(=O)N1CCC[C@H]1C(N)=O (Ac-[Nle]EHFRWGKP-NH2)
  Relative potency: 0.18

## Ac-HFRWG-NH2
  Relative potency: 8e-05

## CCCC[C@H](NC(C)=O)C(=O)N[C@@H](CCC(=O)O)C(=O)N[C@@H](Cc1c[nH]cn1)C(=O)N[C@@H](Cc1ccccc1)C(=O)N[C@@H](CCCN=C(N)N)C(=O)N[C@@H](Cc1c[nH]c2ccccc12)C(=O)NCC(=O)N[C@@H](CCCCN)C(=O)N1CCC[C@H]1C(=O)N[C@H](C(N)=O)C(C)C
  Relative potency: 0.4

## N=C(N)NCCC[C@H](NC(=O)[C@@H](N)Cc1ccccc1)C(=O)O (H-Phe-Arg-OH)
  Relative potency: 0

## CC(=O)N[C@@H](CCCCN)C(=O)N1CCC[C@H]1C(=O)N[C@H](C(N)=O)C(C)C (Ac-Lys-Pro-Val-NH2)
  Relative potency: 0

## CC(=O)N[C@@H](Cc1c[nH]cn1)C(=O)N[C@@H](Cc1ccccc1)C(=O)N[C@@H](CCCN=C(N)N)C(=O)N[C@@H](Cc1c[nH]c2ccccc12)C(N)=O
  Relative potency: 5e-06

## CC(=O)N[C@@H](Cc1ccccc1)C(=O)N[C@@H](CCCN=C(N)N)C(=O)N[C@@H](Cc1c[nH]c2ccccc12)C(=O)NCC(N)=O (Ac-FRWG-NH2)
  Relative potency: 0

## CC(=O)N[C@@H](Cc1c[nH]cn1)C(=O)N[C@@H](Cc1ccccc1)C(=O)N[C@@H](CCCN=C(N)N)C(N)=O (Ac-His-Phe-Arg-NH2)
  Relative potency: 0

## Ac-EHFRWG-NH2
  Relative potency: 0.00014

From ChEMBL document CHEMBL1123651, “alpha-Melanotropin: the minimal active sequence in the frog skin bioassay” (J Med Chem, 1987)
